Conditions in all cases: Compound concentration 10.0 uM
For assay [1], the target named is T1, Muscarinic acetylcholine receptor M1 (Homo sapiens) (UniProt P11229).
T1 sequence (whole entry): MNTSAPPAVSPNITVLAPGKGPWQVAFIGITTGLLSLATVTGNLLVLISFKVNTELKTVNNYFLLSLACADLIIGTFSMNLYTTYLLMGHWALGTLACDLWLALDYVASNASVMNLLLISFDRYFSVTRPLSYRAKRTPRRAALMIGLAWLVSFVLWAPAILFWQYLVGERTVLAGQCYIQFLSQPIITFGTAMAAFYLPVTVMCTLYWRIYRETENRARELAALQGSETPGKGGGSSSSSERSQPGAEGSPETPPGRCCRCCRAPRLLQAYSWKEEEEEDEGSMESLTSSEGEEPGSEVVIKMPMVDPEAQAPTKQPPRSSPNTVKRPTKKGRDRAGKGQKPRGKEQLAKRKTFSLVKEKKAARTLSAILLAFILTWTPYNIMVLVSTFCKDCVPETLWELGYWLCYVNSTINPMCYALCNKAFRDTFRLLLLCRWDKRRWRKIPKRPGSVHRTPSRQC

In assay [2] the target is Histamine H4 receptor (Homo sapiens) (UniProt Q9H3N8).
Chain of Histamine H4 receptor (Homo sapiens) (Q9H3N8 whole entry): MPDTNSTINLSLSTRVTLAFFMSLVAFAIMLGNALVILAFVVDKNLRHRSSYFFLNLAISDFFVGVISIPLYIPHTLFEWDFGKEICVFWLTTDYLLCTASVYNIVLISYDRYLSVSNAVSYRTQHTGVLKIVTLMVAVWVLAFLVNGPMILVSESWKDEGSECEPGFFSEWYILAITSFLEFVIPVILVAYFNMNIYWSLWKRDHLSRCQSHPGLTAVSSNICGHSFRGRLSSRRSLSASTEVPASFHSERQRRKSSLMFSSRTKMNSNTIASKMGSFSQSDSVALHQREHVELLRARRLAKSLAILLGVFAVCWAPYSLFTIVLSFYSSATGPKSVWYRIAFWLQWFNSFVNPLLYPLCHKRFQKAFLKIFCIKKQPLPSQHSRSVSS
In assay [3] the target is 5-hydroxytryptamine receptor 2C (Homo sapiens) (UniProt P28335).
Chain of 5-hydroxytryptamine receptor 2C (Homo sapiens) (P28335 whole entry): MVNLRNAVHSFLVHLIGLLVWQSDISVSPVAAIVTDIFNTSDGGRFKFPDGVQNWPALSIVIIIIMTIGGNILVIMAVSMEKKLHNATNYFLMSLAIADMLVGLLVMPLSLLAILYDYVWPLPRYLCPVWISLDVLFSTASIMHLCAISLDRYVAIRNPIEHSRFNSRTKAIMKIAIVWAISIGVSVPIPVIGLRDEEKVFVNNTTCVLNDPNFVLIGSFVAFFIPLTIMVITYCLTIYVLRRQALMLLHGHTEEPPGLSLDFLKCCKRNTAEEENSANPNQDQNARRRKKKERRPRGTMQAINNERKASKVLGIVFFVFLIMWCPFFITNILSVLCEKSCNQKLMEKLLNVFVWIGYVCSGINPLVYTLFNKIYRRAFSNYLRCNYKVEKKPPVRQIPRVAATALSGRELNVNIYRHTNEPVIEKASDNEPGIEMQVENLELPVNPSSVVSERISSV
The target in assay [4] is Mu-type opioid receptor (Homo sapiens) (UniProt P35372).
Chain of Mu-type opioid receptor (Homo sapiens) (P35372 whole entry): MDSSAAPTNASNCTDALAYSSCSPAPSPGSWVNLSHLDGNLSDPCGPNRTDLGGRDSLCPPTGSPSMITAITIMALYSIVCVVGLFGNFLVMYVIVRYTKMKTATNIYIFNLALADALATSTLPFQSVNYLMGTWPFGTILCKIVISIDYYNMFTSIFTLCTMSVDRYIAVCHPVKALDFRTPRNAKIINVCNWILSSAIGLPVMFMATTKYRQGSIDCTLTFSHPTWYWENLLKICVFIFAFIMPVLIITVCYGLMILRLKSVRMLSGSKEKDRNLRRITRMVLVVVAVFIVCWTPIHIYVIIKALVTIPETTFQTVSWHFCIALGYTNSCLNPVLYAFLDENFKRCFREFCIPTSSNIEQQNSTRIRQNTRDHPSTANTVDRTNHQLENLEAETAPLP
For assay [5], the target named is T2, Alpha-2A adrenergic receptor (Homo sapiens) (UniProt P08913).
T2 sequence (whole entry): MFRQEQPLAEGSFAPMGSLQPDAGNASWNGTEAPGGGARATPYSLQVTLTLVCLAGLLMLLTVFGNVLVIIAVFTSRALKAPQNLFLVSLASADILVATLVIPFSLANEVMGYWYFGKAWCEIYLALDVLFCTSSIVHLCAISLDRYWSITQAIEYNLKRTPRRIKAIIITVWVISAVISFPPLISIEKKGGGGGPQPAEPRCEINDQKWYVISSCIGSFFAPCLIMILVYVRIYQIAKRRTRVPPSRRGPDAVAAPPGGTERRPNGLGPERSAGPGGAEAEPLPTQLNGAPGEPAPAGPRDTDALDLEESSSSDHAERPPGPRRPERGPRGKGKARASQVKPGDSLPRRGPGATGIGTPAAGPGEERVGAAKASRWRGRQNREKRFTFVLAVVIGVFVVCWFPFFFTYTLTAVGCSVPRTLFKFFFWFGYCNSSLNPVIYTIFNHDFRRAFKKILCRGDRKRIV

Assay [6] has as its target GABA-A receptor; anion channel (Rattus norvegicus) (UniProt O09028+P15431+P18506+P18508+P19969+P20236+P23574+P23576+P28471+P28473+P30191+P62813+P63079+P63138+Q91ZM7+Q9ES14).
In assay [7] the target is Sodium-dependent dopamine transporter (Homo sapiens) (UniProt Q01959).
Chain of Sodium-dependent dopamine transporter (Homo sapiens) (Q01959 whole entry): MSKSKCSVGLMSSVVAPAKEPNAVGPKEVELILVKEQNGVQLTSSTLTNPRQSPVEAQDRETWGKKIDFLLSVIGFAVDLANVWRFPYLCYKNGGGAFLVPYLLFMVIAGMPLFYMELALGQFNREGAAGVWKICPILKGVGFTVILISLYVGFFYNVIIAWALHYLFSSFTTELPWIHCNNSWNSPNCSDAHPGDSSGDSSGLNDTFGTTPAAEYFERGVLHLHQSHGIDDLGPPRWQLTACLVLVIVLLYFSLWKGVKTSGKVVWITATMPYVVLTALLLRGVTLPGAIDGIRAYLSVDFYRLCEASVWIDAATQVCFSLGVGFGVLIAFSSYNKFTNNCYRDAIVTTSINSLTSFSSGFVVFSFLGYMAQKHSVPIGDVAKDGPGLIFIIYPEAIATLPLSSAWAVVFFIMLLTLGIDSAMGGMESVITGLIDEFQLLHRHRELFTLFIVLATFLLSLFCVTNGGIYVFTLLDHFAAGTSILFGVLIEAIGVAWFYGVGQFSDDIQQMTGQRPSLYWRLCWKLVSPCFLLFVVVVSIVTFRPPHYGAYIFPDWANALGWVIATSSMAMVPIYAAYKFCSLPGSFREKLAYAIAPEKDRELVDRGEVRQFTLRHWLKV
Assay [8] deals with Sigma non-opioid intracellular receptor 1 (Homo sapiens) (UniProt Q99720).
Chain of Sigma non-opioid intracellular receptor 1 (Homo sapiens) (Q99720 whole entry): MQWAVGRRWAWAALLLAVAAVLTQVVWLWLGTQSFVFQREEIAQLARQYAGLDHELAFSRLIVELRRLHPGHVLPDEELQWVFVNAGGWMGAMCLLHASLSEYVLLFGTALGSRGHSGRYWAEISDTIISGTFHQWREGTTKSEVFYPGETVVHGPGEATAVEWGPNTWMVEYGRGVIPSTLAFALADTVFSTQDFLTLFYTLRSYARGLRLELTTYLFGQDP
Assay [9] deals with Sigma intracellular receptor 2 (Homo sapiens) (UniProt Q5BJF2).
Chain of Sigma intracellular receptor 2 (Homo sapiens) (Q5BJF2 whole entry): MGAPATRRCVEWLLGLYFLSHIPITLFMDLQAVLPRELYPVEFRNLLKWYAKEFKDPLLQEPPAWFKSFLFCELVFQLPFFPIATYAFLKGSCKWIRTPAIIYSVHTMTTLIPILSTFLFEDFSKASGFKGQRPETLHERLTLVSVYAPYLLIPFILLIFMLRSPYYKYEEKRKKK
For assay [10], the target named is T3, Alpha-2B adrenergic receptor (Homo sapiens) (UniProt P18089).
T3 sequence (whole entry): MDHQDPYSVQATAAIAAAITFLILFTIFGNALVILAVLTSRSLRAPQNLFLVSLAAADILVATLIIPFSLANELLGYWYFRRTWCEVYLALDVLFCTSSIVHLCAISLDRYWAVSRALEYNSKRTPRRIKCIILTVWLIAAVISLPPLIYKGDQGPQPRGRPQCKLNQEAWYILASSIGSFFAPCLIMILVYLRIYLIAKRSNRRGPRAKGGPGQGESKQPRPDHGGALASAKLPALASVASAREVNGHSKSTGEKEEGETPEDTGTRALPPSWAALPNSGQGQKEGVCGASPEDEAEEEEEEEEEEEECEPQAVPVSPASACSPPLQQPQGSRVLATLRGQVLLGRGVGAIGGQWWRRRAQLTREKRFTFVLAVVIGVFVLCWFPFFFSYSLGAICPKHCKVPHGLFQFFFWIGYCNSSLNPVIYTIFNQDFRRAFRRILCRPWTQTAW

The target of assay [11] is T4, Alpha-1D adrenergic receptor (Homo sapiens) (UniProt P25100).
T4 sequence (whole entry): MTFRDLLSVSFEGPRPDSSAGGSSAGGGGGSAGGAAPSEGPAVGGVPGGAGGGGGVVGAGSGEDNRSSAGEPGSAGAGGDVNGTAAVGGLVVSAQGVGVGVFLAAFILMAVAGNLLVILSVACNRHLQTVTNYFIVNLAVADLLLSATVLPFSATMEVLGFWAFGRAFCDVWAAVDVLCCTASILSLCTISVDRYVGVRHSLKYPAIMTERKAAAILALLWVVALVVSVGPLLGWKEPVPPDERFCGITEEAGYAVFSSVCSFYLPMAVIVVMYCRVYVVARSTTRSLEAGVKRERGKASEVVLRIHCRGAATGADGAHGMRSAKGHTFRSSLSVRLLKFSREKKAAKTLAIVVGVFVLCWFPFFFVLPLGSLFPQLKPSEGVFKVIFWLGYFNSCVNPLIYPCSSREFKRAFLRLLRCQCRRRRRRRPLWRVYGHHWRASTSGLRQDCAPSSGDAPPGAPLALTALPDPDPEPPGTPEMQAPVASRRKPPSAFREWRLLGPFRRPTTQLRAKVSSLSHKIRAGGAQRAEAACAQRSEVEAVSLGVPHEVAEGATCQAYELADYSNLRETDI

The target of assay [12] is Histamine H3 receptor (Homo sapiens) (UniProt Q9Y5N1).
Chain of Histamine H3 receptor (Homo sapiens) (Q9Y5N1 whole entry): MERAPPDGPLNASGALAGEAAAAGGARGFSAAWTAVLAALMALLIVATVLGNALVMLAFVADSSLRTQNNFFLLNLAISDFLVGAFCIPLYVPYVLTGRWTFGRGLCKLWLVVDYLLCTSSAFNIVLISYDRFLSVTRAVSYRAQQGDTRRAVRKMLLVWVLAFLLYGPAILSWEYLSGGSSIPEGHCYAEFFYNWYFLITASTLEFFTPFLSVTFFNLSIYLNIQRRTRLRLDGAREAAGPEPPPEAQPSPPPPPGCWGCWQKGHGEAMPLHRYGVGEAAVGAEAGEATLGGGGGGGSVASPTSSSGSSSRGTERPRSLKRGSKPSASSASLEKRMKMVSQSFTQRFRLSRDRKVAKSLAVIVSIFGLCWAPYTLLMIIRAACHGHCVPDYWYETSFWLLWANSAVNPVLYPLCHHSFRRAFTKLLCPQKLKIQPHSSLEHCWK

The term inhibition denotes the change of the read-out against control, counted positive when it falls. Regarding `COCCCS(=O)(=O)c1cc(C)c(-c2ccc(F)c3c2CC[C@H]3Oc2ccc3c(c2)OC[C@H]3CC(=O)O)c(C)c1`, the inhibition in [1] is 7.17%; in [2], -2.95%; in assay [3], 2.87%; in [4] it was 13.7%; in assay [5], 5.14%; in assay [6] it was 30.7%. Also, the inhibition in assay [7] was 1.43%; in assay [8] it was 15.2%; in [9] it was -0.91%; in assay [10] it was 3.95%; in assay [11], -5.9%; in [12] it was 3%.

Consider `Cc1cc(OCCC(C)(C)O)cc(C)c1-c1ccc(F)c2c1CC[C@H]2Oc1ccc2c(c1)OC[C@H]2CC(=O)O`, for which the inhibition in assay [1] is -3.94%; in assay [2], -5.97%; in assay [3] it was -4.94%; in assay [4] it was 15.6%; in assay [5] it was 16.6%; in assay [6], 66.7%. The inhibition in assay [7] is 26.8%; in assay [8] it was 25.4%; in [9] it was 13.1%; in assay [10], -1.99%; in assay [11], 5.84%; in [12] it was 9.84%.

The values above are taken from ChEMBL document CHEMBL5058643, “Data for DCP probe BI-2081” (2022).
